Measurements published in patent publication US8252723B2, “Substituted 1-(3-pyridinyl)pyrazol-4-ylacetic acids, processes for their preparation and their use as herbicides and plant growth regulators” (Bayer CropScience AG, priority 2006, dated 2012).

System: summer wheat of the cultivar 'Triso'
Experiment: Plant growth regulation test: culm stabilization of crop plants
Type: in vivo
Settings: application rate of 30 to 300 g of active substance per hectare, treated at stage BBCH 31, culm length measured after ears had formed
Experimental: With stirring, the compound of the formula (I) in question was, in the form of a water-dispersible powder, together with a surfactant (customary adjuvant at an application rate of 1 l/ha), mixed with water such that a homogenous spray liquor was formed, and applied at an application rate of 300 l of water/ha (converted).
Seeds of summer wheat of the cultivar ‘Triso’ were sown at a depth of 1 cm in plant pots and cultivated outdoors until treatment.
The plants were treated on a laboratory track sprayer with spray liquors of the test substances at macrostage 3 after having reached about 10% of the maximum longitudinal growth typical for the cultivar (stage BBCH 31) and, after the treatment, returned outdoors.
After the ears had formed, the length of the culms were measured. The culm stabilization was evaluated as a percentage of the untreated control.

Structure (SMILES)	longitudinal growth (culm length) of summer wheat
Cc1nn(-c2cccnc2)c(-c2ccc(Cl)c(Cl)c2)c1CC(=O)O [Example 1-27]	effectively shortened
COc1ccc(-c2c(CC(=O)O)c(C)nn2-c2cccnc2)cn1 [Example 1-62]	effectively shortened
COCCOC(=O)Cc1c(C)nn(-c2cccnc2)c1-c1ccc(Cl)cc1 [Example 3-229]	effectively shortened
COC(=O)Cc1c(C)nn(-c2cccnc2)c1-c1ccc(Cl)c(C(F)(F)F)c1 [Example 2-47]	effectively shortened
COC(=O)Cc1c(C)nn(-c2ccc(C)nc2C)c1-c1ccccc1 [Example 2-11]	effectively shortened
COC(=O)Cc1c(C)nn(-c2cnccc2Cl)c1-c1ccccc1 [Example 2-30]	effectively shortened
COC(=O)Cc1c(C)nn(-c2cccnc2)c1-c1ccc(Cl)c(C)c1 [Example 2-123]	effectively shortened
Cc1csc(-c2c(CC(=O)OCC3CC3)c(C)nn2-c2cccnc2)c1 [Example 3-85]	effectively shortened
COC(=O)Cc1c(C)nn(-c2cncc(C)c2)c1-c1ccccc1 [Example 2-50]	effectively shortened
COC(=O)Cc1c(C)nn(-c2cnccc2C)c1-c1ccc2c(c1)OCO2 [Example 2-66]	effectively shortened
CCOC(=O)Cc1c(C)nn(-c2cnccc2C)c1-c1ccc(Cl)cc1 [Example 3-1]	effectively shortened
COC(=O)Cc1c(C)nn(-c2cnccc2C)c1-c1ccc(C)c(C)c1 [Example 2-116]	effectively shortened
C=C(C)COC(=O)Cc1c(C)nn(-c2cccnc2)c1-c1ccccc1 [Example 3-156]	effectively shortened
COC(=O)Cc1c(C)nn(-c2cnccc2C)c1-c1sccc1C [Example 2-53]	effectively shortened
Cc1ccsc1-c1c(CC(=O)O)c(C)nn1-c1cccnc1 [Example 1-58]	effectively shortened
COC(=O)Cc1c(C)nn(-c2cccnc2)c1-c1ccccc1Cl [Example 2-31]	effectively shortened
COC(=O)Cc1c(C)nn(-c2cnccc2C)c1-c1ccc(Cl)s1 [Example 2-55]	effectively shortened
Cc1nn(-c2cccnc2)c(-c2ccc(C(=O)O)cc2)c1CC(=O)O [Example 1-42]	effectively shortened
COC(=O)Cc1c(C)nn(-c2cnccc2C)c1-c1ccc(C(F)(F)F)cc1 [Example 2-24]	effectively shortened
COC(=O)Cc1c(C)nn(-c2cnccc2C)c1-c1cc(C)cc(C)c1 [Example 2-33]	effectively shortened

Structure (SMILES)	longitudinal growth (culm length) of summer wheat
Cc1nn(-c2cccnc2)c(-c2ccc(Cl)s2)c1CC(=O)O [Example 1-60]	effectively shortened
CC#CCOC(=O)Cc1c(C)nn(-c2cccnc2)c1-c1ccccc1 [Example 3-117]	effectively shortened
COc1ccc(-c2c(CC(=O)O)c(C)nn2-c2cnccc2C)cc1 [Example 1-13]	effectively shortened
Cc1nn(-c2cccnc2)c(-c2ccco2)c1CC(=O)O [Example 1-4]	effectively shortened
C#CCOC(=O)Cc1c(C)nn(-c2cccnc2)c1-c1ccncc1 [Example 3-74]	effectively shortened
Cc1ccncc1-n1nc(C)c(CC(=O)O)c1-c1ccc(C(C)(C)C)cc1 [Example 1-32]	effectively shortened
Cc1ccncc1-n1nc(C)c(CC(=O)O)c1-c1ccc(F)cc1 [Example 1-37]	effectively shortened
C=C(Cl)COC(=O)Cc1c(C)nn(-c2cccnc2)c1-c1ccc(C)s1 [Example 3-191]	effectively shortened
Cc1nn(-c2cccnc2)c(-c2ccccc2)c1CC(=O)OCC1CCCC1 [Example 3-172]	effectively shortened
Cc1nn(-c2cccnc2)c(-c2cccc(C(F)(F)F)c2)c1CC(=O)O [Example 1-18]	effectively shortened
COC(=O)Cc1c(C)nn(-c2cccnc2)c1-c1ccc(Cl)cc1Cl [Example 2-114]	effectively shortened
COC(=O)Cc1c(C)nn(-c2cccnc2)c1-c1ccc(C)nc1 [Example 2-128]	effectively shortened
COC(=O)Cc1c(C)nn(-c2cnccc2C)c1-c1ccc(F)cc1 [Example 2-37]	effectively shortened
COC(=O)Cc1c(C)nn(-c2cccnc2)c1-c1cccc(C(F)(F)F)c1 [Example 2-18]	effectively shortened
COC(=O)Cc1c(C)nn(-c2cccnc2C)c1-c1ccccc1 [Example 2-135]	effectively shortened
COC(=O)Cc1c(C)nn(-c2cccnc2)c1-c1ccco1 [Example 2-4]	effectively shortened
Cc1nn(-c2cccnc2)c(-c2ccccn2)c1CC(=O)O [Example 1-109]	effectively shortened
C=C(Cl)COC(=O)Cc1c(C)nn(-c2cccnc2)c1-c1ccc(F)cc1 [Example 3-198]	effectively shortened
COC(=O)Cc1c(C)nn(-c2cnccc2OC)c1-c1ccc(Cl)cc1 [Example 2-35]	effectively shortened
Cc1nn(-c2cccnc2)c(-c2ccccc2)c1CC(=O)OCC1(C)CC1 [Example 3-105]	effectively shortened

Structure (SMILES)	longitudinal growth (culm length) of summer wheat
COC(=O)Cc1c(C)nn(-c2cccnc2)c1-c1ccc(Cl)cn1 [Example 2-110]	effectively shortened
COC(=O)Cc1c(C(F)F)nn(-c2cccnc2)c1-c1ccccc1 [Example 2-79]	effectively shortened
Cc1ccncc1-n1nc(C)c(CC(=O)OCC2CC2)c1-c1ccc(Cl)cc1 [Example 3-98]	effectively shortened
Cc1ccncc1-n1nc(C)c(CC(=O)O)c1-c1ccc(C(=O)O)cc1 [Example 1-39]	effectively shortened
COC(=O)Cc1c(C)nn(-c2cccnc2)c1-c1ccc(O)nc1 [Example 2-70]	effectively shortened
COC(=O)Cc1c(C)nn(-c2cccnc2)c1-c1ccc(C(F)(F)F)cn1 [Example 2-144]	effectively shortened
Cc1cc(C)cc(-c2c(CC(=O)O)c(C)nn2-c2cnccc2C)c1 [Example 1-33]	effectively shortened
C#CCOC(=O)Cc1c(C)nn(-c2cccnc2)c1-c1ccc(F)cc1 [Example 3-68]	effectively shortened
Cc1nn(-c2ccc(Cl)nc2)c(-c2ccccc2)c1CC(=O)O [Example 1-7]	effectively shortened
COC(=O)Cc1c(C)nn(-c2cccnc2)c1-c1ccc(C)c(Cl)c1 [Example 2-46]	effectively shortened
COC(=O)Cc1c(C)nn(-c2ccc(Cl)nc2Cl)c1-c1ccccc1 [Example 2-12]	effectively shortened
Cc1nn(-c2cccnc2)c(-c2ccccc2)c1CC(=O)OCC(F)=C(Cl)Cl [Example 3-101]	effectively shortened
COC(=O)Cc1c(C)nn(-c2cnccc2C)c1-c1ccc(-c2ccccc2)cc1 [Example 2-41]	effectively shortened
CC(C)=CCOC(=O)Cc1c(C)nn(-c2cccnc2)c1-c1ccccc1 [Example 3-152]	effectively shortened
Cc1nn(-c2cccnc2)c(-c2ccc(Cl)cc2)c1CC(=O)OCC1CCCCC1 [Example 3-177]	effectively shortened
C#CCOC(=O)Cc1c(C)nn(-c2cccnc2)c1-c1ccc(OC)nc1 [Example 3-63]	effectively shortened
Cc1nn(-c2cccnc2)c(-c2ccccc2)c1CC(=O)OCc1ccccc1 [Example 3-50]	effectively shortened
Cc1nn(-c2cccnc2)c(-c2ccc(C(F)(F)F)cn2)c1CC(=O)O [Example 1-144]	effectively shortened
Cc1ccncc1-n1nc(C)c(CC(=O)O)c1-c1ccccc1Cl [Example 1-22]	effectively shortened
Cc1nn(-c2cccnc2)c(-c2cccnc2)c1CC(=O)O [Example 1-125]	effectively shortened
